Like-named read-outs stand apart in the source and are kept apart here.
What was measured:
RL cells = test: RT2 Glucocorticoid signaling PCR array, RL (Table 4e, printed RI) cell line; type: cell-based; details: 4 days, Cpd44 1 uM, Pred 10-fold below 4-day IC50, vs DMSO, B2M-normalized
Source text: Expression levels of (A). Sestrin; (B). TNF and (C) GILZ normalized to DMSO controls for each cell line with the indicated single agent or combination.

SU-DHL4 cells = test: RT2 Glucocorticoid signaling PCR array, SU-DHL4 (SUDHL4) cell line (Table 4f); type: cell-based; details: SUDHL4, 4 days, vs DMSO
H3K27me3 = details: 4 days
Protocol: Histones were extracted from tumor samples as described above. […] The plates were sealed and incubated overnight at 4° C. The following day, plates were washed 3× with 300 ul/well PBST (PBS+0.05% Tween 20; 10×PBST, KPL #51-14-02) on a Bio Tek plate washer. Plates were blocked with 300 ul/well of diluent (PBS+2% BSA+0.05% Tween 20), incubated at RT for 2 hours, and washed 3× with PBST. All antibodies were diluted in diluent. […] Plates were incubated for 90 min at RT and washed 3× with PBST. […] Plates were washed 4× with PBST. For detection, 100 ul/well of TMB substrate (BioFx Laboratories, #TMBS) was added and plates incubated in the dark at RT for 5 min. Reaction was stopped with 100 ul/well IN H2SO4 Absorbance at 450 nm was read on SpectaMax M5 Microplate reader.

H3K27 acetylation = details: WSU-DLCL2, OCI-LY19, RL cells; 4 days
SU-DHL10 cells = test system: SU-DHL10 cells
Protocol: (§1) After 3 days of co-treatment, cell viability was measured via ATP content using CellTiter-Glo®
(§2) Synergy quantification is performed using the Chou-Talalay method^3 for drug combination. The Combination Index (CI) equation offers a quantitative definition for additivity (CI=1), synergism (CI<1), and antagonism (CI>1). This equation used Fa values from a constant ratio of drug combination to determine CI values. […] These Fa-CI plots are generated using the Calcusyn software.
(§3) After 3 days of co-treatment (5 days for Toledo assays), cell viability was measured via ATP content using CellTiter-Glo® (Promega) and luminescence was detected using a SpectraMax M5 microplate reader (Molecular Devices).
(§4) Synergy quantification is performed using the Chou-Talalay method for drug combination (Ref 1). The Combination Index (CI) equation offers a quantitative definition for additivity (CI=1), synergism (CI<1), and antagonism (CI>1). This equation used fractional effect (Fa) values from a constant ratio of drug combination to determine CI values. […] These Fa-CI plots are generated using the Calcusyn for Windows software (Ref2).
(§5) Dose responses were plotted using Graphpad Prism and either 50% or 60% inhibitory concentrations were interpolated from the dose response curves.

WSU-DLCL2 cells = test system: WSU-DLCL2 cells
Protocol: as §1, §2, §3, §4, §5

DOHH2 cells = details: DOHH2 (WT EZH2 GCB); drug combined with Compound 44
Protocol: as §1, §2, §3, §4, §5

Toledo cells = details: Toledo (WT EZH2 ABC); drug combined with Compound 44
Protocol: as §1, §2, §3, §4, §5

## CCN(c1cc(-c2ccc(CN3CCOCC3)cc2)cc(C(=O)NCc2c(C)cc(C)[nH]c2=O)c1C)C1CCOCC1 [Compound 44]
RL cells; AMPD3 mRNA
  ΔΔCT: −0.885
RL cells; ASPH mRNA
  ΔΔCT: 0.476
RL cells; BCL6 mRNA
  ΔΔCT: 0.263
RL cells; FOSL2 mRNA
  ΔΔCT: −1.274
RL cells; TSC22D3 mRNA
  ΔΔCT: 0.189
RL cells; ZFP36 mRNA
  ΔΔCT: −0.036
SU-DHL4 cells
  ΔΔCT MERTK: 1.977
  ΔΔCT, ADARB1: −1.229
  ΔΔCT, AFF1: −0.276
  ΔΔCT, AMPD3: −1.449
  ΔΔCT, ANGPTL4: −1.331
  ΔΔCT, ANXA4: −2.419
  ΔΔCT, AQP1: 0.331
  ΔΔCT, ARID68: −0.541
  ΔΔCT, ASPH: −0.843
  ΔΔCT, ATF4: 0.146
  ΔΔCT, CEBPA: −2.510
  ΔΔCT, CREB1: −0.313
  ΔΔCT, CREB3: −0.490
  ΔΔCT, CREB3L4: −0.655
  ΔΔCT, CYB561: −4.236
  ΔΔCT, EHD3: −1.998
  ΔΔCT, FK8PS: 0.008
  ΔΔCT, GDPD1: −1.356
  ΔΔCT, GOT1: 0.065
  ΔΔCT, H6PD: −0.549
  ΔΔCT, HNRPLL: −0.471
  ΔΔCT, IL6R: −1.903
  ΔΔCT, IL10: −1.895
  ΔΔCT, KLF9: −1.293
  ΔΔCT, KLF13: −0.534
  ΔΔCT, MT2A: −0.309
  ΔΔCT, NR3C1: −0.234
  ΔΔCT, PDCD7: −0.127
  ΔΔCT, PER1: −0.524
  ΔΔCT, PER2: −0.854
  ΔΔCT, PIK3R1: −0.502
  ΔΔCT, PLEKHF1: −1.254
  ΔΔCT, POU2F1: −0.575
  ΔΔCT, RGS2: −0.632
  ΔΔCT, RHOB: −1.561
  ΔΔCT, SESN1: −2.258
  ΔΔCT, SLC10A6: −4.180
  ΔΔCT, SLC19A2: −1.612
  ΔΔCT, SLC22A5: −0.775
  ΔΔCT, SNTA1: −0.847
  ΔΔCT, SPSB1: −0.624
  ΔΔCT, STAT5B: −0.298
  ΔΔCT, TBL1XR1: −0.456
  ΔΔCT, TNFAIP3: 0.339
  ΔΔCT, TSC22D3: −0.002
  ΔΔCT, USP2: −0.688
  ΔΔCT, USPS4: 6.193
  ΔΔCT, ZFP36: −0.262
  ΔΔCT, ZHX3: −1.047

## C[C@]12C=CC(=O)C=C1CC[C@@H]1[C@@H]2[C@@H](O)C[C@@]2(C)[C@H]1CC[C@]2(O)C(=O)CO [Prednisolone, prednisolone]
H3K27me3; OCI-LY19 cells, at higher doses
  effect on H3K27 trimethylation (H3K27me3): modest increase
H3K27me3; RL cells
  effect on H3K27 trimethylation (H3K27me3): did not have any effect
H3K27me3; WSU-DLCL2 cells
  effect on H3K27 trimethylation (H3K27me3): did not have any effect
RL cells; ATF4 mRNA
  ΔΔCT: 1.364
RL cells; CREB3 mRNA
  ΔΔCT: 0.762
RL cells; CYB561 mRNA
  ΔΔCT: −1.663
RL cells; PIK3R1 mRNA
  ΔΔCT: 0.974
RL cells; POU2F1 mRNA
  ΔΔCT: 1.130
RL cells; SESN1 mRNA
  ΔΔCT: −4.062
RL cells; SLC19A2 mRNA
  ΔΔCT: 0.047
RL cells; ZHX3 mRNA
  ΔΔCT: 0.168
H3K27 acetylation
  H3K27 acetylation levels: not globally affected
SU-DHL4 cells
  ΔΔCT, ADARB1: −0.516
  ΔΔCT, AFF1: −0.429
  ΔΔCT, AK2: −1.076
  ΔΔCT, AMPD3: −0.891
  ΔΔCT, ANGPTL4: −1.047
  ΔΔCT, ANXA4: −0.890
  ΔΔCT, ARID68: −0.131
  ΔΔCT, ASPH: −0.451
  ΔΔCT, ATF4: −0.279
  ΔΔCT, CEBPA: −0.301
  ΔΔCT, CREB1: −0.548
  ΔΔCT, CREB3: −0.560
  ΔΔCT, CREB3L4: −0.199
  ΔΔCT, CYB561: −0.720
  ΔΔCT, EHD3: −1.325
  ΔΔCT, FK8PS: −1.582
  ΔΔCT, GDPD1: −0.409
  ΔΔCT, GHRHR: 0.184
  ΔΔCT, GOT1: −0.402
  ΔΔCT, H6PD: 0.160
  ΔΔCT, HNRPLL: −0.286
  ΔΔCT, IL6R: −0.524
  ΔΔCT, IL10: −0.130
  ΔΔCT, KLF9: −0.821
  ΔΔCT, KLF13: −0.934
  ΔΔCT, MT2A: 0.129
  ΔΔCT, NR3C1: −0.427
  ΔΔCT, PDCD7: 0.403
  ΔΔCT, PER1: −0.786
  ΔΔCT, PER2: −1.101
  ΔΔCT, PIK3R1: −0.892
  ΔΔCT, PLEKHF1: −1.285
  ΔΔCT, POU2F1: −0.432
  ΔΔCT, RGS2: −0.372
  ΔΔCT, RHOB: 0.724
  ΔΔCT, SGK1: −0.346
  ΔΔCT, SLC10A6: −3.874
  ΔΔCT, SLC19A2: −0.995
  ΔΔCT, SLC22A5: −0.171
  ΔΔCT, SNTA1: −0.687
  ΔΔCT, SPSB1: 0.068
  ΔΔCT, STAT5B: −0.268
  ΔΔCT, TBL1XR1: −0.721
  ΔΔCT, TNFAIP3: 0.835
  ΔΔCT, TSC22D3: −2.169
  ΔΔCT, USP2: −1.681
  ΔΔCT, USPS4: −1.060
  ΔΔCT, ZFP36: −0.541
  ΔΔCT, ZHX3: −0.868
SU-DHL10 cells; SU-DHL 10 (EZH2 mutant GCB), drug combined with Compound 44
  Summary of Combinations with Compound 44: potency enhanced: potency enhanced 3x
SU-DHL10 cells; SU-DHL10, single agent
  growth inhibition by the drug by itself: no sensitivity
WSU-DLCL2 cells; WSU-DLCL2 (EZH2 mutant GCB), drug combined with Compound 44
  Summary of Combinations with Compound 44: potency enhanced: potency enhanced 7x
WSU-DLCL2 cells; WSU-DLCL2, single agent
  growth inhibition by the drug by itself: no sensitivity
DOHH2 cells
  Summary of Combinations with Compound 44: potency enhanced: potency enhanced 2x
Toledo cells
  Summary of Combinations with Compound 44 (combination effect): no effect

Source: US10456407B2, “Combination therapy for treating cancer” (Epizyme, Inc., priority 2015, dated 2019)
